Results on two molecules are retold here after US9127008B2, “Morphine sulfate methanolic solvate, processes for making same and related compositions and methods for treating pain” (Johnson Matthey Public Limited Company, priority 2013, dated 2015).

The conditions of series [1]: 2 months under air at room temperature.
Series [2] is described as follows: Storage of morphine sulfate in moisturizing chamber (moist room temperature air), ABUK/water/ethanol analysis. The series is classed as physicochemical. The conditions noted are these: after several days in moisturizing chamber.

Read-outs that look alike come from different tables or passages of the source.

For `CN1CC[C@]23c4c5ccc(O)c4O[C@H]2[C@@H](O)C=C[C@H]3[C@H]1C5` [morphine base, morphine], in series [1], the “methanol content after storage” value turned out to be 0.08 % by weight and the “water content after storage” value amounted to 5.70 % by weight. Further, in series [1] (morphine base had 5 ppm ABUK at start), the “ABUK level after storage” value is on record as 117 ppm.
With `CN1CC[C@]23c4c5ccc(O)c4O[C@H]2[C@@H](O)C=C[C@H]3[C@H]1C5.O=S(=O)(O)O` [morphine sulfate], the “ABUK level after storage” value in series [2] (constant flow of moist room temperature air, 17 ppm ABUK before) is reported as 123 ppm. Moreover, the “ethanol content after storage” value in series [2] (0.95% before (gas chromatography)) is 0.11%. Also, the “water content after storage” value in series [2] (5.25% before (Karl Fischer)) amounted to 9.8%.
